The values that follow come from patent US20130096160A1, “ARYLTHIAZOLYL PIPERIDINES AND RELATED COMPOUNDS AS MODULATORS OF SURVIVAL MOTOR NEURON (SMN) PROTEIN PRODUCTION” (Secretary, Department of Health and Human Services, priority 2010, published 2013).

In data set [1] the test system is SMN positive foci or gems in the nucleus. Briefly: Gem count in human type I SMA fibroblasts. Format: cell-based. The settings on record: 3 days, FIG. 5; for number of gems versus dose (in words): 37 nM-3000 nM. The text has this: Furthermore, the increase in SMN protein production led us to explore whether the arylpiperidine analogues had effect of on the overall number of SMN positive foci or gems in the nucleus. This would corroborate that the increased protein amounts represent indeed functional SMN protein. SMN protein is predominately a cytoplasmic protein in the nucleous SMN which localized to in distinct punctuate bodies often referred to as gems (gemini of coiled [Cajal] bodies). There is a direct correlation between the number of gems and total SMN protein production in the cell. Gem counts are commonly used as another metric to score the amount total SMN protein expressed on a cell-to-cell basis. […] Only 3.3% of nuclei have gems in fibroblast cells from SMA type I patients (cell line 3813), while 24.8% of nuclei have gems in fibroblast from a carrier parent (3814 cell line). We treated human type I SMA fibroblasts with increasing doses (37 nM 3000 nM) of arylpiperidine analogues 8a, 8m, and 9a for 3 days and the number of gems per 100 nuclei were examined (FIG. 5). Analogue 8m treatment yielded more than 2 fold of increase of the number of the gems at low 37 nM dose.

For data set [2], the system named is SMN2-luciferase reporter. Briefly: SMN2-luciferase reporter qHTS assay. More on the design: key to Curve Class: A curve class of 1.1 is a full agonist/antagonist; a curve class of 4 indicates the compound is inactive. Format: cell-based, human. The settings on record: for Curve Class: agonist/antagonist character of the concentration-response, lower values = more significant concentration-response; for Increased SMN2 activity: percent increase (or decrease) in SMN2 levels compared to control in which no test compound is added. In outline:
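SMN2 exon-7 splicing firefly-luciferase reporter cell line, ~2000 cells/well in phenol-red-free DMEM with 10% serum, allowed to adhere 10–12 h, then exposed to compounds for 2 days at 37 C, 5% CO2. Seven-point five-fold dilution series (e.g. 50 μM to 3.2 nM), OneGlo luminescence read, curves fitted to Hill equation.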
In general terms: A reporter such as luciferase makes a cellular process visible.

Data set [3] deals with human SMN protein. In words: Western blot of SMN protein in SMA patient fibroblasts (3813). Format: cell-based. The settings on record: for SMN protein level versus dose (in words): different doses. The method, then:
Type I spinal muscular atrophy (SMA)-affected human primary fibroblasts (#GM03813) and carrier parents (#GM03814, parent and #GM03815, […]) are obtained live with low passage number from Coriell Cell Repositories. […] For detection of SMN protein in patient fibroblasts, 8,000 cells per cm^2 are plated 24 hours prior to drug addition. Fresh media and compound are added every 24 hours. After 72 hours, cells are harvested, washed with cold PBS, and lysed. Samples are subjected to polyacrylamide gel electrophoresis (PAGE). It is determined that 10 μg total protein per lane is within the linear range for immunoblot detection of SMN and alpha-tubulin. Western blots of the gel are probed for SMN with the 4B7 mouse monoclonal antibody (from the lab of Christian Lorson). A goat anti-mouse antibody (Santa Cruz Biotechnology/#sc-2005) conjugated to horseradish peroxidase (HRP) is used as the secondary antibody. Quantification of protein is performed by detecting chemiluminescence with a Fujifilm LAS-4000 Multifunctional Imaging System. […] We incubated a fibroblast cell line from a type I SMA patient (3813 cell line) with different doses of analogues and assessed the SMN protein level by quantitative western blotting (FIG. 4). We observed that analogue 8 m at concentration of 37 nanomolar increased the SMN protein level by 2-3 fold. […] This could be due with the intrinsic mechanism of action or to other causes, such us concentration dependent compound solubility.

Data set [4] concerns SMN1-luciferase reporter. In words: SMN1-luciferase reporter control cell line. The settings on record: SMN1-luc reporter, FIG. 1. It is filed as cell-based, human. An excerpt: A cell-based quantitative high throughput screening (qHTS) assay is used to identify compounds able to increase SMN production. The assay uses a SMN2-luciferase reporter to determine if exon 7 of the SMN gene is expressed, which correlates with increased full-length SMN production from the SMN2 gene. As controls, a homologue SMN1-luciferase reporter cell line looks for variations in expression of the SMN1 gene and a cell line with just the luciferase reporter looks at the capacity of the compounds to inhibit luciferase. In addition, increments in SMN production by lead compounds were confirmed by Western-Blot analysis using SMA patient fibroblasts.
The SMN reporters used herein are modified from those previously described (M. L. Zhang, C. L. Lorson, E. J. Androphy and J. Zhou, An in vivo reporter system for measuring increased inclusion of exon 7 in SMN2 mRNA: potential therapy of SMA, Gene Ther 8 (2001), pp. 1532-1538.)
The sequence of the SMN1 reporter vector used herein is given in SEQ ID NO.:1, while that of the SMN2 reporter vector is given in SEQ ID NO.:2. […]

A short description of data set [5]: in vitro. Format: in vitro ADME. The conditions noted are these: human, Caco-2. The procedure:
CaCo-2 cells grown in tissue culture flasks are trypsinized, suspended in medium, and the suspensions are applied to wells of a collagen-coated BioCoat Cell Environment in 24-well format (BD Biosciences) at 24,500 cells per well. The cells are allowed to grow and differentiate for three weeks, feeding at 2-day intervals.
For Apical to Basolateral (A->B) permeability, the test agent is added at 50 μM to the apical (A) side and amount of permeation is determined on the basolateral (B) side; for Basolateral to Apical (B>A) permeability, the test agent is added at 50 μM to the B side and the amount of permeation is determine on the A side. The A-side buffer contains 100 μM Lucifer yellow dye, in Transport Buffer (1.98 g/L glucose in 10 mM HEPES, 1× Hank's Balanced Salt Solution) pH 6.5, and the B-side buffer is Transport Buffer, pH 7.4. CaCo-2 cells are incubated with these buffers for 2 h., and the receiver side buffer is removed for analysis by liquid chromatography-mass spectrometry (LC/MS/MS).
Additionally, several control compounds are tested in the identical assay.
To verify that CaCo-2 cell monolayers are properly formed, aliquots of the cell buffers are analyzed by fluorescence to determine the transport of the impermeable dye Lucifer Yellow.
Data are expressed as permeability (Papp): […]
where dQ/dt is the rate of permeation, C0 is the initial concentration of test agent, and A is the area of the monolayer.
In bidirectional permeability studies, the asymmetry index (AI) or efflux ratio is also calculated:
An AI>1 indicated a potential substrate for PGP or other active transporters.
Samples are analyzed by LC/MS/MS using either an Agilent 6410 mass spectrometer coupled with an Agilent 1200 high performance liquid chromatography (HPLC) and a CTC PAL chilled autosampler, all controlled by MassHunter software (Agilent), or an ABI2000 mass spectrometer coupled with an Agilent 1100 HPLC and a CTC PAL chilled autosampler, all controlled by Analyst software (ABI). After separation on a C18 reverse phase HPLC column (Agilent, Waters, or equivalent) using an acetonitrile-water gradient system, peaks are analyzed by mass spectrometry (MS) using electrospray ionization (ESI) in multiple reaction monitoring (MRM) mode.
The signal is optimized for each compound by ESI positive or negative ionization mode. A MS2 selected ion monitoring (SIM) scan is used to optimize the precursor ion and a product ion analysis is used to identify the best fragment for analysis and to optimize the collision energy.

Setting [6] is: 3813 fibroblasts, quantitative western blotting, FIG. 4.

For the compound `NC(=O)C1CCN(c2ncc(-c3ccc4c(c3)OCCCO4)s2)CC1` [Example 124, 1-(5-(3,4-Dihydro-2H-Benzo[B][1,4] Dioxepin-7-yl)Thiazol-2-yl)Piperidine-4-Carboxamide], in data set [1], the “number of gems versus dose (in words)” value is recorded as “didn't show any activity”. In data set [2], the “Curve Class” value came to 1.1 and the “Increased SMN2 activity” value was determined as 370.5%.

Consider `CSc1ccc(-c2cnc(N3CCC(C(N)=O)CC3)s2)cc1` [Example 134, 1-(5-(4-(Methylthio)Phenyl)Thiazol-2-yl)Piperidine-4-Carboxamide], for which the “increase of the number of the gems” value in data set [1] (37 nM) was “more than 2 fold”. The “number of gems versus dose (in words)” value in data set [1] is given as “With the concentration increased, the numbers of gems was reduced”. Moreover, in data set [3] (3813 fibroblasts, quantitative western blotting, 37 nanomolar, FIG. 4), the “increase of SMN protein level” value is 2-3 fold. Besides, the “SMN protein level versus dose (in words)” value in data set [3] (setting [6]) is on record as “decreased with the increasing of the drug concentration”. Further, in data set [2], the “Curve Class” value is listed as 1.1 and the “Increased SMN2 activity” value is reported as 576.1%.

With `O=C(O)C1CCN(c2ncc(-c3ccc4c(c3)OCCCO4)s2)CC1` [Example 148, 1-(5-(3,4-Dihydro-2H-Benzo[B][1,4]Dioxepin-7-yl)Thiazol-2-yl)Piperidine-4-Carboxylic Acid], in data set [1] (37 nM to 1000 nM), the “increase of the gem numbers” value turned out to be 80%. Also, the “number of gems versus dose (in words)” value in data set [1] is “slightly decreased at 3000 nM”. Further, the “SMN protein level versus dose (in words)” value in data set [3] (setting [6]) was “dose-dependent trend between 37 nM to 1 μM concentration and a decrease of protein level at 3 μM”. Also, in data set [2], the “Curve Class” value is 1.1 and the “Increased SMN2 activity” value is recorded as 325.6%.

Consider `COc1nc(-c2ccccc2)nnc1-c1ccccc1` [MLS000763654], for which, in data set [3] (SMA patient cells (3813), 0.1-10 μM, FIG. 2), the “SMN protein by Western blot (in words)” value is given as “concentration-dependent increase in SMN protein”. Moreover, the “expression of SMN1 (in words)” value in data set [4] was “reduces the expression of SMN1”. Moreover, the “expression of SMN2 / levels of the full length SMN2 gene (in words)” value in data set [2] (SMN2-luc reporter, FIG. 1) is listed as “increases the expression of SMN2”.

By Papp A→B is commonly meant the apparent permeability from the apical to the basolateral side of a cell layer. As to `CNC(=C[N+](=O)[O-])NCCSCc1ccc(CN(C)C)o1` [Ranitidine, ranitidine, reference compound], the Papp A→B at 2 h, 10 μM in data set [5] turned out to be 0.42 ×10⁻⁶ cm/s.

The term Papp B→A denotes the apparent permeability from the basolateral to the apical side of a cell layer. In data set [5], `CC(=O)CC(c1ccccc1)c1c(O)c2ccccc2oc1=O` (centres unmarked) [Warfarin, reference compound] came in with an apparent permeability from apical to basolateral (Papp A→B) at 2 h, 10 μM of 45.8 ×10⁻⁶ cm/s and a Papp B→A at 2 h, 10 μM of 11.7 ×10⁻⁶ cm/s.
